Measured values taken from article PMC6152408, “Interaction of Flavonoids from Woodwardia unigemmata with Bovine Serum Albumin (BSA): Application of Spectroscopic Techniques and Molecular Modeling Methods” (Molecules : A Journal of Synthetic Chemistry and Natural …, 2017).

Each compound was assayed against T1, bovine serum albumin (BSA) (Bos taurus, UniProt P02769) (assay: intrinsic fluorescence quenching (ex […] nm)). Details: 297 K, pH 7.4, 0.05 M Tris-HCl, 0.1 M NaCl, 5 µM BSA; double-log.
T1 construct: gene ALB; commercial fatty acid-free native BSA (Shanghai Shenhang Biotechnology), mature, 583 residues, untagged; PDB 4JK4 used only for docking
Format: binding

T1 sequence (P02769 25-607): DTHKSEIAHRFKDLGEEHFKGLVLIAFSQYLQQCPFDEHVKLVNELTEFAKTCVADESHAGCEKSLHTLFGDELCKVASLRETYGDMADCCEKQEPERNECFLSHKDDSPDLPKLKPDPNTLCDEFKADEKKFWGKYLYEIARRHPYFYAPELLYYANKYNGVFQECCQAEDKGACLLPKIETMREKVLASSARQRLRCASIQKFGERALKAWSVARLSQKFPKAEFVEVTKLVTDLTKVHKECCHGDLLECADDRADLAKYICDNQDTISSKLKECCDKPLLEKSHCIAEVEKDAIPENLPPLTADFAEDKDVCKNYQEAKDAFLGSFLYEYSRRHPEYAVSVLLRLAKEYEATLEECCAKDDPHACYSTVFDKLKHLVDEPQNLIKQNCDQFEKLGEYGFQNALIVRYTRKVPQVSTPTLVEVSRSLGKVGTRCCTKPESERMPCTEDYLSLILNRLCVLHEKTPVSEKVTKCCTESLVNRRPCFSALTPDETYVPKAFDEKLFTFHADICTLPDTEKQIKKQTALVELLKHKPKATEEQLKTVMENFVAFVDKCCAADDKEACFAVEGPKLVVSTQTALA

SMILES	Kb (×10^5 L.mol^-1)
CC(=O)O[C@H]1[C@H](Oc2c(-c3ccc(O)cc3)oc3cc(O[C@@H]4O[C@@H](C)[C@H](O)[C@@H](O)[C@H]4O)cc(O)c3c2=O)O[C@@H](C)[C@H](O)[C@H]1O [compound 5, kaempferol 3-O-α-L-(2-O-acetyl) rhamopyranoside-7-O-α-L-rhamnopyranoside]	0.96 × 10^5 L·mol^−1
CC(=O)O[C@@H]1[C@@H](O)[C@@H](O)[C@H](Oc2cc(O)c3c(=O)c(O[C@@H]4O[C@@H](C)[C@H](OC(C)=O)[C@@H](OC(C)=O)[C@H]4O)c(-c4ccc(O)cc4)oc3c2)O[C@H]1C [compound 1, kaempferol3-O-α-L-(3,4-O-di-acetyl) rhamopyranoside-7-O-α-L-(4-O-acetyl) rhamnopyranoside]	0.41 × 10^5 L·mol^−1
CC(=O)O[C@@H]1[C@@H](OC(C)=O)[C@@H](O)[C@H](Oc2c(-c3ccc(O)cc3)oc3cc(O[C@@H]4O[C@@H](C)[C@H](O)[C@@H](O)[C@H]4O)cc(O)c3c2=O)O[C@H]1C [compound 2, crassirhizomoside B]	0.57 × 10^5 L·mol^−1
CC(=O)O[C@@H]1[C@@H](O)[C@H](C)O[C@@H](Oc2c(-c3ccc(O)cc3)oc3cc(O[C@@H]4O[C@@H](C)[C@H](O)[C@@H](O)[C@H]4O)cc(O)c3c2=O)[C@@H]1O [compound 4, kaempferol 3-O-α-L-(3-O-acetyl) rhamopyranoside-7-O-α-L-rhamnopyranoside]	1.06 × 10^5 L·mol^−1
